From PMC2248166, “Quantitative peptide binding motifs for 19 human and mouse MHC class I molecules derived using positional scanning combinatorial peptide libraries” (Immunome Research, 2008)

Tests used:
Format in all cases: binding
HLA B*5101 = HLA B*5101 (Homo sapiens, UniProt P01889, A329T/A93T/A95T/C349S/D138N/D201E/D98Y/E187L/E204Q/E69T/G107R/I218V/K202T/L105A/L119W/N104I/Q94N/R106L/R155S/R180L/S101N/S121T/S35A/S48A/V306I/V36M/Y195H/Y91F)
HLA A*6802 = HLA A*6802 (Homo sapiens, UniProt P04439, A269V/D140Y/D185E/E176V/E277Q/E87N/F33Y/G231S/I121R/I166T/I218V/L180W/L300P/L318F/N151K/P208A/P217A/Q86R/R138H/R169H/S129P/T345S/V36M)
HLA B*5401 = HLA B*5401 (Homo sapiens, UniProt P01889, A329T/C349S/D138N/D201E/E176V/E187T/E204Q/E69G/I76V/K202T/L119W/R155S/R180L/S121T/S35A/S48A/V127L/V306I/V36M/Y140L)
HLA A*3201 = HLA A*3201 (Homo sapiens, UniProt P04439, A270S/D101S/D185E/E176V/E277Q/F133L/G103R/G107R/G231S/H175R/I121M/I218V/I322F/K168Q/L105A/L300P/L318F/M331R/P208A/P217A/Q94H/R106L/R138Q/S129P/T104I/T323A/T345S/V100E/V321M/V358M); experiment: biochemical
HLA B*5301 = HLA B*5301 (Homo sapiens, UniProt P01889, A329T/A93T/A95T/C349S/D201E/D98Y/E176V/E187L/E204Q/E69T/G107R/I218V/K202T/L105A/L119I/N104I/Q94N/R106L/R155S/R180L/S101N/S121R/S35A/S48A/T118I/V127L/V306I/V36M/Y140S/Y91F)
HLA B*5801 = HLA B*5801 (Homo sapiens, UniProt P01889, A329T/C349S/D201E/D98Y/E176V/E187L/E204Q/E69T/G107R/I218V/I90N/K202T/L105A/L119I/N104I/N87E/Q89R/Q94S/R106L/R155S/R180L/R86G/S101N/S121R/S35A/S48A/T118I/V127L/V306I/V36M/Y140S/Y91M)
H-2 K^d = H-2 K^d (Mus musculus, UniProt P01902)
H-2 D^d = H-2 D^d (Mus musculus, UniProt P01900)
HLA B*3501 = HLA B*3501 (Homo sapiens, UniProt P01889, A329T/A93T/A95T/C349S/D201E/D98Y/E176V/E187L/E204Q/E69T/I218V/K202T/L119I/Q94N/R155S/R180L/S121R/S35A/S48A/T118I/V127L/V306I/V36M/Y140S/Y91F)
HLA B*1503 = HLA B*1503 (Homo sapiens, UniProt P01889, A329T/A93T/A95T/C349S/D201E/D98Y/E187L/E204Q/K202T/N87E/Q94N/R155S/R180L/S121R/S35A/V306I/V36M/Y140S/Y91S); experiment: biochemical
H-2 D^b = H-2 D^b (Mus musculus, UniProt P01899)
HLA A*3001 = HLA A*3001 (Homo sapiens, UniProt P04439, D140H/D185E/E176W/F33S/G80R/H175R/K168Q/R138E/R41S); experiment: biochemical
HLA B*1501 = HLA B*1501 (Homo sapiens, UniProt P01889, A329T/A93T/A95T/C349S/D201E/D98Y/E187L/E204Q/E69M/E70A/K202T/N87E/Q94N/R155S/R180W/S121R/S35A/S48A/V306I/V36M/Y140S/Y91S); experiment: biochemical
H-2 K^k = H-2 K^k (Mus musculus, UniProt P04223)
HLA B*0801 = HLA B*0801 (Homo sapiens, UniProt P01889, A93T/A95T/D138N/E176V/E187T/K202T/Q94N/R180D/S35A/V36M/Y33D/Y91F); experiment: biochemical
HLA B*5802 = HLA B*5802 (Homo sapiens, UniProt P01889, A329T/C349S/D201E/D98Y/E176V/E187L/E204Q/E69T/G107R/I218V/I90N/K202T/L105A/N104I/N87E/Q89R/Q94S/R106L/R155S/R180L/R86G/S101N/S121W/S35A/S48A/V127L/V306I/V36M/Y140S/Y91M)

H-2 K^k, sequence (P01887 21-119): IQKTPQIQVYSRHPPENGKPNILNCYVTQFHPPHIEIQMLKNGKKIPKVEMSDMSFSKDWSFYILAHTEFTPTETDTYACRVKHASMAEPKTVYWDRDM
H-2 K^k, sequence (P04223 22-369): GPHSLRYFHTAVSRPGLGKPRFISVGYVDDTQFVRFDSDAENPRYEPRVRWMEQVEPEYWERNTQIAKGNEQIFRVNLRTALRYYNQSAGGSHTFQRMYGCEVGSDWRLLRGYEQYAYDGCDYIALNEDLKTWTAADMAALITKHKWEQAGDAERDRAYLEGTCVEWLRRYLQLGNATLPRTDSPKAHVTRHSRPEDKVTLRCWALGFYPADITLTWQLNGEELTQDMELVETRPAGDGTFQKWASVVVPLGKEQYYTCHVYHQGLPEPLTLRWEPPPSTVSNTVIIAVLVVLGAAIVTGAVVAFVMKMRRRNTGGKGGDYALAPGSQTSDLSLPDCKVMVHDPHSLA
H-2 K^d, sequence (P01887 21-119): as the sequence (P01887 21-119) above
H-2 K^d, sequence (P01902 22-368): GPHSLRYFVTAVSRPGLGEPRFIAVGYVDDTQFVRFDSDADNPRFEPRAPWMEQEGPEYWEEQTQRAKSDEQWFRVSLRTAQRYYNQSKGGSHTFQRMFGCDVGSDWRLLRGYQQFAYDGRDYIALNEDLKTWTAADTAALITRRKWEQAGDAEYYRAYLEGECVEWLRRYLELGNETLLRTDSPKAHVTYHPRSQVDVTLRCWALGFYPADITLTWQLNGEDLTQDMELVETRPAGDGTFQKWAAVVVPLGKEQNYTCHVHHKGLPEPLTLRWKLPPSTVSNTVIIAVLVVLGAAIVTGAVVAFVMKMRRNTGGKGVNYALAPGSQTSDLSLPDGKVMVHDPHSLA
H-2 D^b, sequence (P01887 21-119): as the sequence (P01887 21-119) above
H-2 D^b, sequence (P01899 25-362): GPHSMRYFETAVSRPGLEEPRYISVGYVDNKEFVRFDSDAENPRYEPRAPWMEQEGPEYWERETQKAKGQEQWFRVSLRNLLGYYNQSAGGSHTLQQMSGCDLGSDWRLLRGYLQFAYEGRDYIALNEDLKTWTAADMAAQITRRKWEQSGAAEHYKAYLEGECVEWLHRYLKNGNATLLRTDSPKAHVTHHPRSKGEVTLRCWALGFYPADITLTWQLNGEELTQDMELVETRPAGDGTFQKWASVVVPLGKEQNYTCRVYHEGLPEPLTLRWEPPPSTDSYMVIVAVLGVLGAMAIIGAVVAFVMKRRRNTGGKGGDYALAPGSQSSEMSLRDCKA
H-2 D^d, sequence (P01900 whole entry, looked up): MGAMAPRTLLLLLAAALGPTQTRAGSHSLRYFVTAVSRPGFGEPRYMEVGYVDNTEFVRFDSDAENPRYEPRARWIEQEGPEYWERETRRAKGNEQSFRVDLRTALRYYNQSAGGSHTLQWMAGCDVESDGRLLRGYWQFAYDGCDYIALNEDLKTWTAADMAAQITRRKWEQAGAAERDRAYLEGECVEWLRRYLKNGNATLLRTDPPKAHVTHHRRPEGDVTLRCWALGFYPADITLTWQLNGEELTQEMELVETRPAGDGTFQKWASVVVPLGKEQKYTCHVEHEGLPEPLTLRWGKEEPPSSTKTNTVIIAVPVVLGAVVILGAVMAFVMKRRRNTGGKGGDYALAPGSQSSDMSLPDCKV

Row | Sequence | Normalized average relative binding affinity(ARB) (HLA B*5101) | Normalized average relative binding affinity(ARB) (HLA A*6802) | Normalized average relative binding affinity(ARB) (HLA B*5401) | Normalized average relative binding affinity(ARB) (HLA A*3201) | Normalized average relative binding affinity(ARB) (HLA B*5301) | Normalized average relative binding affinity(ARB) (HLA B*5801) | Normalized average relative binding affinity(ARB) (H-2 K^d) | Normalized average relative binding affinity(ARB) (H-2 D^d) | Normalized average relative binding affinity(ARB) (HLA B*3501) | Normalized average relative binding affinity(ARB) (HLA B*1503) | Normalized average relative binding affinity(ARB) (H-2 D^b) | Normalized average relative binding affinity(ARB) (HLA A*3001) | Normalized average relative binding affinity(ARB) (HLA B*1501) | Normalized average relative binding affinity(ARB) (H-2 K^k) | Normalized average relative binding affinity(ARB) (HLA B*0801) | Normalized average relative binding affinity(ARB) (HLA B*5802)
1 | XXXXKXXXX [3064.0089] | 0.29 | 0.14 | 0.049 | 0.16 | 0.042 | 0.11 | 0.011 | 0.44 | 0.12 | 0.13 | 0.032 | 0.16 | 0.31 | 0.091 | 0.47 | 0.58
2 | XXXRXXXXX [3064.0075] | 0.40 | 0.057 | 0.069 | 0.22 | 0.11 | 0.67 | 0.20 | 0.62 | 0.059 | 0.50 | 0.63 | 0.52 | 0.28 | 0.34 | 0.86 | 0.96
3 | XXXXXXXAX [3064.0141] | 0.52 | 1.0 | 0.50 | 0.99 | 0.80 | 0.14 | 1.0 | 0.93 | 1.0 | 0.27 | 0.50 | 0.53 | 0.36 | 0.82 | 0.95 | 0.31
4 | XXXYXXXXX [3064.0080] | 0.88 | 0.44 | 0.26 | 0.71 | 0.29 | 0.27 | 0.14 | 1.0 | 0.085 | 0.55 | 0.63 | 0.42 | 0.41 | 0.24 | 0.59 | 0.49
5 | XXXXIXXXX [3064.0088] | 0.33 | 0.88 | 0.13 | 0.59 | 0.30 | 0.34 | 0.19 | 0.28 | 0.26 | 0.12 | 0.020 | 0.20 | 0.32 | 0.24 | 0.080 | 0.79
6 | XXXXXVXXX [3064.0118] | 0.20 | 0.60 | 0.17 | 1.0 | 0.65 | 0.72 | 0.32 | 0.63 | 0.34 | 0.78 | 0.51 | 0.22 | 0.37 | 0.59 | 0.077 | 0.26
